Experimental data: patent USRE49035E1, “Traditional Chinese medicine composition, and preparation and application thereof” (Tasly Pharmaceutical Group Co., Ltd., priority 2013, dated 2022)

Columns and labels:
Format in all cases: in vivo
[1] = tested on: AA-induced platelet aggregation; assay: AA-induced platelet aggregation rate trial in rabbits; settings: AA final 80 μg/ml; dose 60 mg/kg intragastrically once a day for 7 d
Method: (§1) The rabbits were randomly grouped into 4 groups: the model group was given with distilled water, the aspirin group ([…]), Extract A groups of low dose and high dose at 42 and 84 mg/kg (respectively 1 2 times of clinic equivalent dosage), intragastrically administrated, once a day for 7 consecutive days. The volume of medicine administrated was 1 ml/kg body weight. 60 min after intragastric administration on 7th day, the animals were anesthetized locally, blooded through carotid artery, anticoagulated with sodium citrate (3.8%) 1:9 and centrifugated at 1000 r/min for 10 min. Platelet-rich plasma (PRP) was taken and the remain centrifugated at 3000 r/min to take platelet-poor plasma (PPP. Aggregation was induced by ADP (final concentration 3 μg/ml), AA (final concentration 80 μg/ml) and collagen (5 μg/ml). […] platelet aggregation & coagulation factor analyzer was used to measure the maximum platelet aggregation rate and to calculate inhibition rate according to following formula. [formula]

[2] = tested on: collagen-induced platelet aggregation; assay: Collagen-induced platelet aggregation rate trial in rabbits; settings: collagen 5 μg/ml; dose 60 mg/kg intragastrically once a day for 7 d
Method: as §1

[3] = tested on: ADP-induced platelet aggregation; assay: ADP-induced platelet aggregation rate trial in rabbits; settings: ADP final 3 μg/ml; dose 60 mg/kg intragastrically once a day for 7 d
Method: as §1

Compound CC(=O)Oc1ccccc1C(=O)O [Aspirin] has a Platelet aggregation rate [1] of 5.80 ± 1.85 %, a Platelet aggregation rate [2] of 6.06 ± 2.07 % and a Platelet aggregation rate [3] of 19.15 ± 4.08 %.
